# Entries after “also recorded” stand apart in the source; their conditions may differ. Counter-ions that a name gives are not always drawn.
# Legend:
# Assay type in all cases: in vivo, rat
# [1] = system: male ZDF (Zucker Diabetic Fatty) rats; assay: Plantar test (thermal hyperalgesia, withdrawal latency); details: for effect on thermal hyperalgesia (plantar test), acute treatment: single 64 mg/kg i.p., compared with week 7 baseline, 64 mg/kg
# Procedure: (§1) The example 1 was dissolved in physiological saline (0.9%) and pH was corrected to 5 with NaOH. The compound was administered by the intraperitoneal (i.p.) route. The doses of drug employed in the present study were 64 mg/kg i.p. for acute administration and 25 mg/kg i.p. twice a day (BID) for the chronic treatment during 14 days. The compound and the saline (vehicle) adjusted at pH 5, were administered in a volume of 0.5 ml.
# (§2) All experimental protocols were performed in strict accordance with the EC regulation for care and use of experimental animals (86/609/EEC). Studies were performed with male ZDF (Zucker Diabetic Fatty) rats (ZDF/Gmi, fa/fa) obtained from Charles Rivers Genetic Models Inc. 6 week old rats were housed in groups of two in standard transparent cages, under a 12 light-dark cycle, and animals were maintained on Purina 5008 (16.7 kcal % fat) diet and sterile tap water, available ad libitum. Nonfasting blood glucose levels and body weight were regularly monitored.
# (§3) Acute example 1: animals received one injection (0.5 ml) of example 1 (64 mg/kg i.p.) 30 minutes before behavioral testing (n=8).
# (§4) Chronic example 1: animals received one injection (0.5 ml) of example 1 (25 mg/kg BID, for 14 days) (n=8). Behavioral tests were performed once a week during the treatment, and one week after the last administration they were sacrificed and electrophysiological and cardiovascular experiments were carried out.
# Thermal (heat) hyperalgesia (heat-nociception) was tested using a 37370 plantar test apparatus (Ugo Basile, Comerio VA, Italy). The withdrawal latency from a focused beam of radiant heat applied to the mid plantar surface of the hindpaws was recorded. The intensity of light was adjusted at the start of the experiment such that the control average baseline latencies were about 8 s and a cut-off latency of 30 s was imposed. The withdrawal latency of each paw was measured and the mean value was used for data analysis. The antihyperalgesic effect of the treatment was evidenced as an increase in the withdrawal latency respect to control baseline latencies.
# Plantar test results are expressed as the percentage of the mean of thermal latency obtained from both hindpaws.
# Data are expresses as mean+standard error mean (SEM). Statistical analysis of drug effects for significant differences between multiple groups were performed by analysis of variance (ANOVA), followed, when appropriate, by post-hoc Newman-Keuls test or Bonferroni Test. P<0.05 was considered as statistically significant.
# [2] = system: Aδ-fibres of ZDF rats; assay: Skin-nerve preparation and electrophysiological recordings (saphenous nerve Aδ-fibres, mechanical stimulation) after chronic treatment
# Procedure: as §4
# 3.2 Skin—Nerve Preparation and Electrophysiological Recordings
# In order to minimize pain or discomfort, animals were killed by cervical dislocation. The saphenous nerve and its innervating territory on the hairy hindpaw skin were subcutaneously dissected and excised. […] Neuronal activity was recorded using gold-wire electrodes. Small filaments of the nerve were repeatedly split with sharpened forceps until a single unit activity could be recorded from them. […] Spikes were later analyzed offline using the SPIDI software.
# Units were first identified by manual probing of the skin with a blunt glass rod that exerts a pressure of more than 500 mN to search for their receptive field (RF). […] In order to characterize the units, we assessed their conduction velocity (CV) by electrically stimulating the RF with supramaximal square-wave pulses (pulse width, 0.5 ms; train frequency, 0.2 Hz; variable intensity) with a Teflon-coated steel microneurography electrode (shaft diameter 1 mm, bare tip diameter 5-10 μm impedance 1-5 MΩ); an indifferent electrode was placed nearby in the organ bath. […]
# [3] = system: male ZDF (Zucker Diabetic Fatty) rats; assay: Spontaneous locomotor activity (photocell activity chambers)
# Procedure: as §1
# as §2, with “monitored. […]” for “monitored.”
# it was evaluated using individual photocell activity chambers (Cibertec, Spain). Rats were placed in the recording chambers (55×40 cm, spacing between beams 3 cm) […] after drug administration, and the number of interruptions of photocell beams was recorded over a 30-min period.
# Spontaneous locomotor activity is expressed as the percentage of the mean number of crossings of the photocell beams over 30 minutes. […]
# [4] = system: male ZDF (Zucker Diabetic Fatty) rats; assay: Von Frey test (mechanical allodynia, pressure threshold)
# Procedure: as §1, §2, §3, §4
# Mechanical allodynia was assessed using an electronic Von Frey apparatus (EVF3, Bioseb, BP89, Chaville Cedez, France). Rats were placed individually on an elevated iron mesh floor, covered by a transparent plastic cage and were allowed to adapt to the testing environment for at least 15 minutes. The test was done by applying the von Frey filament through the mesh floor to the plantar surface of each hindpaw.
# The test was performed three times with approximately 3 min interval between trials. The mean of the three trials was used for data analysis. […]
# Von Frey test results are expressed as the percentage of the mean of mechanical threshold obtained from both hindpaws. […]
# [5] = ZDF rats, 25 mg/kg i.p. BID for 14 days (week 13 to 15)
# [6] = chronic treatment 25 mg/kg for 14 days, twice a day
smiles,measurement,setting,value
"Cc1cc(OCCN2CCOCC2)nn1-c1ccc2ccccc2c1 [Example 1, 4-{2-[5-methyl-1-(naphthalen-2-yl)-1H-pyrazol-3-yloxy]ethyl}morpholine hydrochloride]",increase of the latency to hindpaw withdrawal in response to thermal stimulation (plantar test),"[1]; ZDF rats aged 13 weeks, acute 64 mg/kg i.p., 30 minutes before test, mean±SEM, vehicle 12.6±6.9%",25.5±9.1%
same,"effect on thermal hyperalgesia (plantar test), acute treatment","[1]; ZDF rats aged 13 weeks, hydrochloride",reversed thermal hyperalgesia
same,"effect on thermal hyperalgesia (plantar test), acute treatment","[1]; ZDF rats aged 13 weeks, listed as example 1, hydrochloride",restored baseline values; also recorded: reversed the changes in the thresholds
same,"effect on thermal hyperalgesia (plantar test), chronic treatment",[1]; [5],completely reversed
same,tolerance to the antihyperalgesic effect,[1]; [6],No tolerance
same,threshold of response to the mechanical stimulation (electrophysiological recording),"[2]; 25 mg/kg i.p. BID for 14 days, vs vehicle-treated ZDF rats",reduced the threshold
same,hyperreactivity in response to mechanical stimulation in electrophysiological recordings (Aδ-fibres),"[2]; chronic treatment, conclusion",reduction of the hyperreactivity
same,"spontaneous locomotor activity, chronic treatment","[3]; 25 mg/kg i.p. BID for 14 days, vs pretreatment values",no differences
same,"spontaneous locomotor activity, acute treatment",[3]; single 64 mg/kg i.p.,not significantly different
same,"effect on mechanical allodynia (Von Frey test), acute treatment","[4]; ZDF rats aged 13 weeks, single 64 mg/kg i.p., compared with week 7 baseline, listed as example 1, hydrochloride, 64 mg/kg",restored baseline values; also recorded: the mechanical allodynia was reversed; also recorded: reversed the changes in the thresholds
same,"effect on mechanical allodynia (Von Frey test), chronic treatment",[4]; [5],completely reversed
same,tolerance to the antiallodynic effect,[4]; [6],No tolerance
